Molecules are shown by their SMILES. Several values for one entry are separate records, joined by “and”; a condition that tells them apart may be missing. Equal values may be shown once. Where a name gives a salt, the structure may show the parent alone.

Type in all cases: physicochemical
Data set [1] in a line: Shape factor and aspect ratio by DSA-10 image analyzer. To be noted: samples (i)-(iii); for shape factor: 4πA/P^2 by DSA-10 during constant flow of slurry; for aspect ratio: minimal Feret / maximal Feret. How it is done:
The sphericity of the particles was also measured using a DSA-10 image analyzer (Ankersmid Ltd., Israel). The analysis was performed during constant flow of slurry containing the particles. Images of about 1000 particles were analyzed by the image analyzer to determine the sphericity of the particles. In these measurements the sphericity was also as defined 4πA/P^2. To distinguish between the sphericity values obtained as determined using the image processing software and the sphericity values obtained using the image analyzer, the latter are referred to below as “shape factor”.
Beside sphericity, the DSA-10 image analyzer was used to characterize the shape of the particles by their aspect ratio, defined as the ratio between the minimal Feret and the maximal Feret of the particles.

The nature of data set [2]: Sphericity by optical microscope images and image processing software (Buehler Omnimet). How it is done: Thus, denoting the area of the image by A and the perimeter of the image by P, the sphericity, s, can be defined as s=4πA/P^2. As will be appreciated by one of ordinary skill in the art, when the image is a perfect circle, A=π(P/2π)^2=P^2/4π and s=1. When the area of the image is 0 (i.e., the image is a line or a curve) s=0. The samples were imaged through a transmission optical microscope (magnification: ×12.5). The images were analyzed by image processing software (Buehler Omnimet®). Each image processing comprised the following steps. In a first step the particles were delineated for 1 cycle; in a second step, dark areas were defined by thresholding; in a third step, the dark areas were filled; in a fourth step, particles smaller than 20×20 pixels were eliminated; in a fifth step border particles were eliminated; and in a sixth step the delineation of the non-eliminated particles were processed by the octagonal kernel of the software for 3 cycles. FIG. 19 is an image showing the raw sucrose particles after image processing. Following image processing the area, A, and perimeter, P, of each particle was measured from the images. The sphericity of each particle was defined as 4πA/P^2.

A short description of data set [3]: Angle of repose test on tilted smooth tile. To be noted: tile tilted 1° at a time; angle at which first particles slide. An excerpt:
Another definition of the angle of repose is the maximum angle of tilt of a bed of the powder beyond which the powder cannot retain a static pose. To measure the angle of repose according to this definition, the powder of the present embodiments can be placed on a smooth solid bed surface. The bed surface can then be tilted very slowly about the horizontal axis to a maximum angle without the particles sliding. When the bed surface is tilted beyond the maximum angle, sliding occurs, and the angle of the bed surface to the horizontal once the particles begin sliding is defined as the angle of repose. An angle of repose measured by this technique is oftentimes referred to as tilting angle of repose.
The diltiazem hydrochloride particles were subjected to an angle of repose test. The particles were placed on a smooth tile positioned horizontally. The tile was tilted slowly each time at 1° about the horizontal axis. The angle of repose was defined as the angle at which the first particles had slide.

The nature of data set [4]: Surface smoothness from particle images (Scanning Electron Microscopy). The following applies: as shown in images of the particles. How it is done:
An additional estimate of the particles' smoothness was performed by analyzing the samples via Scanning Electron Microscopy (SEM). FIGS. 9A-C are images of the raw sucrose particles (FIG. 9A), sucrose particles of the present embodiments (FIG. 9B) and the prior art particles (FIG. 9C).

Data set [5] can be described thus: BET specific surface area measurement (TriStar 3000 analyzer). How it is done: A BET surface of the particle refers to a surface measured using a method developed by Brunauer, Emmett and Teller and commonly referred to as BET method. According to the BET method, the surface area is determined by allowing the surface to interact with nitrogen molecules and analyzing the corresponding adsorption curves. The BET method is well known in the art and is found in many publications (to this end see, e.g., S. J. Gregg and K. S. Sing, “Adsorption, Surface Area and Porosity”, Academic Press, London, 1995).
Following drying, a sample of the formed sucrose particles was subjected to BET measurement using a TriStar 3000 analyzer (Micromeritics, Georgia, USA), to obtain a specific surface area for the particles (surface area per unit mass). An averaged value of 0.03 m^2/gr was measured. For comparison, the specific surface area of a sample of prior art particles of similar size (355-500 micrometer Suglets®, purchased from NP Pharm, France), was also measured. The specific surface area of the particles of this sample was 0.27 m^2/gr. Thus, the sucrose particles produced according to the teaching of the present embodiments of the invention are characterized by a specific surface area which is about 9 times smaller than the specific surface area characterizing the prior art. As the average size of the samples was similar, the specific surface was used as a measure of the smoothness of the particles.

Data set [6] can be described thus: Ratio of optical surface area to BET surface area / rugosity. An excerpt: In an additional embodiment, the smoothness is defined by a ratio between an optical surface area of the particle and a BET surface area thereof.
An optical surface area of the particle is the surface area of the particle as measured optically. Such measurement can be performed, for example, by obtaining an image of the particle using an optical microscope and estimating its surface area, by approximating the shape of the particle to a symmetrical shape. For example, when the shape of the particle is similar to a sphere, its optical surface area can be approximated by 4πR^2, where R is the radius of the particle, as measured from the image. When the shape of the particle is similar to a spheroid, having a long axis a and an aspect ratio of ε, its surface area can be approximated by 2πa^2 ε (ε+t/b), where b is given by b^2=1−ε^2, and t (in radians) is given by sin(t)=b. As will be appreciated by one ordinarily skilled in the art the aspect ratio can also be approximated as the square root of the sphericity defined above.
A BET surface of the particle refers to a surface measured using a method developed by Brunauer, Emmett and Teller and commonly referred to as BET method. According to the BET method, the surface area is determined by allowing the surface to interact with nitrogen molecules and analyzing the corresponding adsorption curves. […]

Data set [7] can be described thus: Flow rate test with Hall flow meter. The following applies: 5 millimeter diameter nozzle tilted at an angle of 30°. An excerpt: The flowability of the powder of the present embodiments can also be characterized by its flow rate at certain conditions. The flowability can be measured using a suitable flow meter, such as, but not limited to, a Hall flow meter. Thus, according to a preferred embodiment of the present invention the powder of the preset embodiments is capable of maintaining a flow rate of at least 6, more preferably at least 8, more preferably at least 10 gram per square centimeter per second, through a 5 millimeters nozzle tilted at an angle of 30°.
The metformin particles were subjected to a flow rate test using a Hall flow meter having a 5 millimeter diameter nozzle. The nozzle was tilted at an angle of 30°.

The mark [8] stands for this setting: 4πA/P^2, Table 1, magnification ×12.5.
The mark [9] stands for this setting: Table 2, samples (i)-(iii), hydrochloride.

For the compound `NC(=O)N1c2ccccc2CC(=O)c2ccccc21` [raw oxcarbazepine, oxcarbazepine, reference compound], in data set [1], the shape factor is 0.7789 and 0.7908 and 0.7886; the aspect ratio was 0.6102 and 0.6062 and 0.6221. The sphericity in data set [2] (Table 2, samples (i)-(iii)) was 0.4997 and 0.4760 and 0.4144.

Compound `COc1ccc([C@@H]2Sc3ccccc3N(CCN(C)C)C(=O)[C@@H]2OC(C)=O)cc1` [diltiazem hydrochloride] showed an angle of repose in data set [3] of 38 °. For the same compound, in data set [4], the “surface of the particles (image)” value was “substantially smooth”.

For the compound `OC[C@H]1O[C@@](CO)(O[C@H]2O[C@H](CO)[C@@H](O)[C@H](O)[C@H]2O)[C@@H](O)[C@@H]1O` [rounded 300-600 μm sucrose, sucrose], the “specific surface area (surface area per unit mass), BET” value in data set [5] (dried powder sample, averaged value) worked out at 0.03 m^2/gr. Moreover, the BET specific surface result in data set [5] (particles whose average diameter is about 400 micrometer) is “about 0.03 gr/m^2”. Also, in data set [5] (versus 355-500 micrometer Suglets of similar size), the “specific surface area, times smaller than prior art” value was “about 9 times”. Also, the “surface of the particles (image)” value in data set [4] is reported as “substantially smooth”. In data set [2] (setting [8]), this compound showed a sphericity of 0.875 ± 0.027. Further, the rugosity in data set [6] (corresponds to optical/BET surface area ratio) is given as 1.5-3. The optical specific surface area in data set [6] (spherical or spherical-like particle, diameter about 400 micrometer) lay in the range of 0.01 to 0.02 m²/g.

With `COc1ccc([C@@H]2Sc3ccccc3N(CCN(C)C)C(=O)[C@@H]2OC(C)=O)cc1.Cl` [rounded dilitiazem hydrochloride mix 20-45 μm + 45 μm] [diltiazem hydrochloride], in data set [1] (hydrochloride), the shape factor is 0.8383 and 0.8419 and 0.8279; the aspect ratio was 0.6828 and 0.6923 and 0.6731. For the same compound, in data set [2] (setting [9]), the sphericity was 0.5315 and 0.6004 and 0.5942.

Take `NC(=O)N1c2ccccc2CC(=O)c2ccccc21` [rounded oxcarbazepine, oxcarbazepine]: in data set [1], the shape factor was 0.8138 and 0.7996 and 0.8174; the aspect ratio is 0.5875 and 0.5887 and 0.5829. Further, the sphericity in data set [2] (Table 2, samples (i)-(iii)) was 0.6103 and 0.5707 and 0.4969.

For the compound `COc1ccc([C@@H]2Sc3ccccc3N(CCN(C)C)C(=O)[C@@H]2OC(C)=O)cc1.Cl` [rounded dilitiazem hydrochloride 20-45 μm] [diltiazem hydrochloride], in data set [1] (hydrochloride), the shape factor was 0.8426 and 0.8168 and 0.8467; the aspect ratio was 0.6915 and 0.6935 and 0.6947. For the same compound, in data set [2] (setting [9]), the sphericity is 0.5106 and 0.5220 and 0.5139.

`COc1ccc([C@@H]2Sc3ccccc3N(CCN(C)C)C(=O)[C@@H]2OC(C)=O)cc1.Cl` [raw dilitiazem hydrochloride, diltiazem hydrochloride, reference compound] returned an angle of repose in data set [3] of 48 °. In data set [1] (hydrochloride), the shape factor is 0.7032 and 0.7056 and 0.6847; the aspect ratio is 0.5416 and 0.5442 and 0.5293. The sphericity in data set [2] (setting [9]) was 0.5278 and 0.4773 and 0.4954.

On to `CN(C)C(=N)N=C(N)N` [raw metformin, metformin, reference compound], for which the flow rate entry in data set [7] (listed as raw metformin particles) is listed as “no flow was observed”. For the same compound, in data set [1], the shape factor was 0.8244 and 0.8214 and 0.8404; the aspect ratio is 0.6900 and 0.6434 and 0.6420. The sphericity in data set [2] (Table 2, samples (i)-(iii)) was 0.6146 and 0.5675 and 0.5720.

As for `COc1ccc([C@@H]2Sc3ccccc3N(CCN(C)C)C(=O)[C@@H]2OC(C)=O)cc1.Cl` [rounded dilitiazem hydrochloride above 45 μm] [diltiazem hydrochloride], in data set [1] (hydrochloride), the shape factor was 0.8229 and 0.8211 and 0.8368; the aspect ratio is 0.7015 and 0.6986 and 0.7053. In addition, the sphericity in data set [2] (setting [9]) was 0.6572 and 0.6601 and 0.6940.

As to `CN(C)C(=N)N=C(N)N` [rounded metformin, metformin], in data set [7] (listed as rounded metformin particles), the flow rate is given as 10.2 gr/(cm^2×s). Further, in data set [1], the shape factor is 0.8719 and 0.8739 and 0.8843; the aspect ratio was 0.6791 and 0.6740 and 0.6904. Further, the “surface of the particles (image)” value in data set [4] was “substantially smooth”. For the same compound, in data set [2] (Table 2, samples (i)-(iii)), the sphericity is 0.7634 and 0.7676 and 0.7344.

As for `OC[C@H]1O[C@@](CO)(O[C@H]2O[C@H](CO)[C@@H](O)[C@H](O)[C@H]2O)[C@@H](O)[C@@H]1O` [raw sucrose, sucrose, reference compound], in data set [2] (setting [8]), the sphericity was found to be 0.773 ± 0.05.

These data come from US20090162447A1, “Spherically Shaped Substances” (priority 2005, published 2009).
